In US20250214966A1, “Crystalline Salt Form Of A SHP2 Inhibitor” (Array BioPharma Inc., priority 2022, published 2025):
Structures can show the parent of a compound that is named as a salt. Where two headings read alike, the source gives them in different places. Blank lines part the entries; values can stand above or below the compound they belong to.

How the values were obtained:
Assay type in all cases: physicochemical
[1] = Solubility in buffers, HPLC of mother liquors (Tables 12 and 13); details: for solubility at 25 h: 25 °C, thermodynamic from solid, read-out: Solubility Concentration
Description: Upon addition of the buffer solutions, the samples were vortexed. The samples were rotated at 40° C. for 8 hours, 15° C. for 5 hours, and 25° C. for 12 hours in an Envirogenie thermomixer. After the thermomixing cycle, the slurries were isolated by centrifugation filtration and the isolated mother liquors were analyzed by HPLC.
(§1) HPLC method (Tables 12 and 13): An Agilent 1290 UPLC instrument was used with a Waters XSelect HSS T3 Column (100 angstrom, 4.6×150 mm, 5 μm). The column temperature was set to 20° C., the UV wavelength set to 254 nm, the injection volume was 10 μL, with a flow rate of 1.0 mL/min. 10 mM Ammonium acetate adjusted to pH 4.8 was used as a mobile phase A, and acetonitrile was used as mobile phase B. The gradient method was set up to achieve 15% mobile phase B at 0 minutes, 95% mobile phase B at 17 minutes—held until 22 minutes, 15% mobile phase B at 22.1 minutes—held until 28 minutes.

[2] = Dynamic vapor sorption, hygroscopicity (Tables 12 and 13); details: DVS
Description: Dynamic Vapor Sorption (“DVS”) (Table 12): The microbalance was calibrated using a 100 mg standard weight. The relative humidity sensor was calibrated at 5.0, 11.3, 32.8, 52.8, 75.3, and 84.3% RH (25° C.) using saturated salt solutions, as well as 80% RH (25° C.) using polyvinylpyrrolidone. 8-10 mg of the powder sample was placed in the platinum sample pan. There is no drying step with this method. The RH is first maintained at 30% RH, then decreased to 10% RH, and then 3% RH using the criteria of moving on when the weight change of the sample was <0.001 wt % in 5 min or after reaching a maximum equilibration time of 60 minutes. […] Again, the attainment of equilibrium was assumed when the weight change of the sample was <0.001 wt % in 5 min or by a maximum equilibration time of 120 minutes.
DVS (Table 13): Water sorption and desorption were analyzed with a DVS-Resolution. The microbalance is calibrated with a 100 mg standard weight on a monthly basis. About 5 mg of API was added to a translucent sample pan and placed inside chamber A of the DVS-Resolution. Percent relative humidity was held at 0% for 1 hour, and increased to 90% in 10% increments, then ramped back to 0% in 10% increments.

[3] = Chemical stability (HPLC) after storage at 70° C.
Description: Sample Preparation (Table 12): Crystalline (S)-1′-(6-((2-amino-3-chloropyridin-4-yl)thio)-1,2,4-triazin-3-yl)-1,3-dihydrospiro[indene-2,4′-piperidin]-1-amine free base hemihydrate (Form 1)—Control: Compound (15.46 mg) was weighed into a 50 mL amber volumetric flask. Methanol (approximately 35 mL) was added to the flask, sonicated 4 minutes with intermittent swirling, equilibrated to room temperature, brought to volume with methanol and mixed well with repeated inversions of the flask. Crystalline (S)-1′-(6-((2-amino-3-chloropyridin-4-yl)thio)-1,2,4-triazin-3-yl)-1,3-dihydrospiro[indene-2,4′-piperidin]-1-amine free base hemihydrate (Form 1)—70° C./5% relative humidity (“RH”)/1 week: Compound (14.83 mg) was weighed into a 50 mL amber volumetric flask. Methanol (approximately 35 mL) was added to the flask, sonicated 4 minutes with intermittent swirling, equilibrated to room temperature, brought to volume with methanol and mixed well with repeated inversions of the flask. Crystalline (S)-1′-(6-((2-amino-3-chloropyridin-4-yl)thio)-1,2,4-triazin-3-yl)-1,3-dihydrospiro[indene-2,4′-piperidin]-1-amine free base hemihydrate (Form 1)—70° C./75% RH/1 week: Compound (14.99 mg) was weighed into a 50 mL amber volumetric flask. Methanol (approximately 35 mL) was added to the flask, sonicated 4 minutes with intermittent swirling, equilibrated to room temperature, brought to volume with methanol and mixed well with repeated inversions to the flask.
as §1, with “Chemical stability (HPLC) (Table 12): A Waters Acquity H-Class” for “HPLC method (Tables 12 and 13): An Agilent 1290 UPLC”, “ammonium” for “Ammonium”, “phase.” for “phase B at 22.1 minutes—held until 28 minutes.”
70° C./75% RH Sample: about 20 mg of crystalline anhydrous (S)-1′-(6-((2-amino-3-chloropyridin-4-yl)thio)-1,2,4-triazin-3-yl)-1,3-dihydrospiro[indene-2,4′-piperidin]-1-amine mono succinate salt Form 1 was placed in an open amber vial in the 70° C./75% RH chamber 70° C./5% RH Sample: about 20 mg crystalline anhydrous (S)-1′-(6-((2-amino-3-chloropyridin-4-yl)thio)-1,2,4-triazin-3-yl)-1,3-dihydrospiro[indene-2,4′-piperidin]-1-amine mono succinate salt Form 1 was placed in a closed amber vial with the cap taped in a 70° C. chamber with uncontrolled humidity […]

[4] = Grinding assessment of form and crystallinity

Solubility Concentration ([1]; Water, Final pH 9.19, Final XRD Additional peak at 8°): 0.24 µg/mL
Solubility Concentration ([1]; pH 3, Final pH 4.51, Final XRD Freebase Form 1): 2044.85 µg/mL
Solubility Concentration ([1]; pH 4, Final pH 5.12, Final XRD Freebase Form 1): 301.79 µg/mL
Solubility Concentration ([1]; pH 5, Final pH 6.06, Final XRD Freebase Form 1): 58.53 µg/mL
Solubility Concentration ([1]; pH 6, Final pH 6.95, Final XRD Freebase Form 1): 32.25 µg/mL
Solubility Concentration ([1]; pH 7, Final pH 8.19, Final XRD Freebase Form 1): 10.05 µg/mL
Solubility Concentration ([1]; pH 8, Final pH 9.13, Final XRD Insufficient solids): 0.56 µg/mL
Solubility Concentration ([1]; pH 9, Final pH 10.2, Final XRD Insufficient solids): 0.26 µg/mL
Solubility Concentration ([1]; pH 10, Final pH 3.94, Final XRD Insufficient solids): 0.45 µg/mL
Chemical Stability (70° C./5% RH), decrease in purity ([3]; 70° C./5% RH, HPLC): 0.25% decrease in purity
Chemical Stability (70° C./75% RH), decrease in purity ([3]; 70° C./75% RH, HPLC): 0.09% decrease in purity
Grinding Assessment [4]: No change in form or crystallinity
Structure (SMILES): Nc1nccc(Sc2cnc(N3CCC4(CC3)Cc3ccccc3[C@H]4N)nn2)c1Cl.Nc1nccc(Sc2cnc(N3CCC4(CC3)Cc3ccccc3[C@H]4N)nn2)c1Cl.O [Example 2, (S)-1′-(6-((2-amino-3-chloropyridin-4-yl)thio)-1,2,4-triazin-3-yl)-1,3-dihydrospiro[indene-2,4′-piperidin]-1-amine Free Base Hemihydrate (Form 1)]
Hygroscopity [2]: Non-hygroscopic at 25 °C and exhibits less

solubility at 25 h ([1]; Water, Final pH 5.01, Final XRD Succinate Form 1): 8180 µg/mL
solubility at 25 h ([1]; pH 3 buffer, aqueous buffer, pH 3, Final pH 4.5, Final XRD Succinate Form 1): 4220 µg/mL
solubility at 25 h ([1]; pH 4 acetate buffer, aqueous buffer, pH 4, Final pH 4.16, Final XRD Insufficient solids): 6400 µg/mL
solubility at 25 h ([1]; pH 5 buffer, aqueous buffer, pH 5, Final pH 5.08, Final XRD Succinate Form 1): 4440 µg/mL
solubility at 25 h ([1]; pH 6 phosphate buffer, aqueous buffer, pH 6, Final pH 5.37, Final XRD Freebase Form 1): 597 µg/mL
solubility at 25 h ([1]; pH 7 buffer, aqueous buffer, pH 7, Final pH 6.81, Final XRD Insufficient solids): 17.1 µg/mL
solubility at 25 h ([1]; pH 8 buffer, aqueous buffer, pH 8, Final pH 7.78, Final XRD Freebase Form 1): 2.66 µg/mL
solubility at 25 h ([1]; pH 9 buffer, aqueous buffer, pH 9, Final pH 9.01, Final XRD Freebase Form 1): 0.18 µg/mL
solubility at 25 h ([1]; pH 10 buffer, aqueous buffer, pH 10, Final pH 9.82, Final XRD Freebase Form 1): 0.17 µg/mL
Hygroscopity [2]: not hygroscopic
Hygroscopity, weight gain ([2]; up to 90% relative humidity): 0.9%
Chemical Stability (70° C./5% RH), decrease in purity [3]: 0.13% decrease in purity
Chemical Stability (70° C./75% RH), decrease in purity [3]: 0.19% decrease in purity
Grinding Assessment [4]: Reduction in crystallinity
Structure (SMILES): Nc1nccc(Sc2cnc(N3CCC4(CC3)Cc3ccccc3[C@H]4N)nn2)c1Cl [Example 3, (S)-1′-(6-((2-amino-3-chloropyridin-4-yl)thio)-1,2,4-triazin-3-yl)-1,3-dihydrospiro[indene-2,4′-piperidin]-1-amine Mono Succinate Salt Form 1]
